Measurements from patent US5362629A, “Detection of immunosuppressants” (President and Fellows of Harvard College, priority 1991, dated 1994).
“Also recorded” adds a separate entry of the source.

Assays:
[1] = system: set of four target proteins (calcineurin-calmodulin) adsorbed on GFK-FK506; assay: Competitive binding / elution of target proteins from glutathione-Sepharose-immobilized GFK-FK506; design: species or system bovine
Method: A competitive binding experiment was carried out with recombinant FKBP12 and cyclophilin A (Standaert et al., 1990, supra, Lui et al., 1990, Proc. Natl. Acad. Sci. 87:2304) and their respective drug complexes. After the set of four target proteins were adsorbed onto the glutathione Sepharose affinity matrix, elution was attempted with immunophilins, the drugs, or the immunophilin-drug complexes. The set of four proteins were eluted from glutathione-sepharoseimmobilized GFK-FK506 with both recombinant complexes. In contrast, these proteins were not eluted by free immunophilins or unbound drugs.
To further test the importance of divalent metal ions for interaction between immunophilin-drug complexes and target proteins, the adsorption experiment was performed in the presence of the Ca^2+ chelator EGTA.

[2] = system: proteins of Mr 61,000, 57,000, 17,000, and 15,000 from calf thymus (calcineurin A, calcineurin B, calmodulin); assay: Glutathione Sepharose adsorption of target proteins from tissue extracts by immunophilin-drug affinity matrices; type: binding, bovine; details: calf thymus extract; Ca2+ and Mg2+ in incubation buffer
Method: Several factors were taken into account in the design of the first glutathione-Sepharose adsorption experiment. […] In addition, in some experiments, a homobifunctional cross-linking reagent, dimethyl 3,3'-dithiobispropionimidate (DTBP) (Wang et al. 1974, J. Biol. Chem. 249:8005) was added to the incubation mixture to retain target proteins whose affinity for immunophilin or immunophilin-drug complex was not sufficient to withstand the washes following adsorption of the complex to the solid phase.
Adsorption of calcineurin-calmodulin with GFK-FK506 using glutathione Sepharose was performed as follows. Crude tissue extracts, fresh bovine calf brain, thymus, or spleen (Research 87, Revere, MA), were homogenized (1:3 W/V) in 20 mM Tris HCl (pH 6.8), 0.25 mM NaCl, 2 mM β-mercaptoethanal, 0.02% NaN3, 1 mM PMSF, and 5% glycerol. The homogenate was centrifuged at 8,000×g for 4 h. The supernatant was separated and the pellet was resuspended in an equal volume of the same buffer. Centrifugation at 8,000 ×g for 4 h gave a second supernatant. The two supernatants were mixed (1:1 v/v) and centrifuged at 30,000×g for 45 min. The supernatant was then filtered through a 0.45 μm filter and kept at 4° C. before use.
The crude tissue extracts were pre-incubated with glutathione Sepharose (about 1:100 to 1:200 dilution of the sepharose) at 4° C. for 1-3 h to remove the endogenous glutathione binding proteins, including glutathione S-transferases. […] After incubation at 4° C. on a nutator for 1.5 h, 25 μL of 50% (V/V) glutathione Sepharose in buffer A was added and incubation was continued for an additional 0.5 to 2 h. The Sepharose beads were precipitated by centrifugation on a microcentrifuge at 5,000×g for 2 min. The glutathione Sepharose beads were washed three times with 0.5 mL buffer A containing 0.2% Triton X-100. The washed glutathione Sepharose was then resuspended in 25 μL of 2× SDS sample buffer, heated in boiling water for 3 min, and centrifuged for 2 min. The supernatant was subjected to SDS-PAGE followed by silver staining. […]

[3] = molecular target: T1, calcineurin-Ca2+/calmodulin (Bos taurus, UniProt P48452+P63099); assay: Calcineurin phosphatase assay with para-nitrophenyl phosphate; type: biochemical, bovine; details: Ca2+ and calmodulin present
T1 construct: Bovine brain calcineurin and calmodulin were purchased from Sigma Chemical; purchased Sigma Chemical (St. Louis, Mo.); also a gift from Dr. Claude B. Klee; host or cells: bovine brain
Source text: The small para-nitrophenyl phosphate reagent presumably interacts with calcineurin nearly exclusively via active site residues, whereas the phosphopeptide, which is comprised of a sequence derived from the phosphorylation site on the RII subunit of cyclic AMP-dependent protein kinase (a calcineurin substrate) (Blumenthal et al., 1986, J. Biol. Chem 261:8140), is presumed to make extensive contact with the enzyme.

calcineurin = molecular target: T2, calcineurin (Bos taurus, UniProt P48452+P63099); assay: Calcineurin phosphatase assay with 32P-phosphopeptide (RII subunit) substrate; type: biochemical, bovine; details: in the presence or absence of calmodulin; Ca2+
T2 construct: Bovine brain calcineurin and calmodulin were purchased from Sigma Chemical; purchased Sigma Chemical (St. Louis, Mo.); also a gift from Dr. Claude B. Klee; host or cells: bovine brain
T2 sequence (P63099 2-170 limits assumed, other chains not shown): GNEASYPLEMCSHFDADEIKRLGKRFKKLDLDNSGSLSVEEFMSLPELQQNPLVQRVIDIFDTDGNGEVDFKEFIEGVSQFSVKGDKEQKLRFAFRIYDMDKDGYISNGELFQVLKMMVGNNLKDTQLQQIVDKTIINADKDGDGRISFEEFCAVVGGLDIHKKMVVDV
Method: Calcineurin is known to be a Ca^2+, calmodulin-dependent protein phosphatase (Stewart et al., 1982, FEBS. Lett. 137:80). Using a phosphorylated peptide fragment from the regulatory subunit of cAMP-dependent kinase as a substrate, the phosphatase activity of the calcineurin was assayed in the presence of the immunophilins, the individual drugs, and their respective complexes with or without calmodulin.
Calcineurin phosphatase assays were carried out essentially as described previously (Manalan et al. 1983, Proc. Natl. Acad. Sci. USA 80:4291) with minor modifications. The substrate used was a synthetic peptide corresponding to the phosphorylation site of the RII subunit of cyclic AMP-dependent protein kinase […] (Sequence I.D. No. 1), which was phosphorylated with ^32 p-labeled ATP at the serine residue. The assay buffer consists of 40 mM TrisHCl (pH 7.5), 0.1 M NaCl, 6 mM MgCl2, 0.1 mM CaCl2, 0.1 mg/mL bovine serum albumin, and 0.5 mM dithiothreitol. The assay mixture (60 μl) contained 40 nM calcineurin, and 80 nM calmodulin (when present), and 2 μM phosphopeptide in addition to the assay buffer. […] Therefore, the drug solutions were prepared in DMSO as follows. DMSO stock solutions of the drugs were prepared (3000×final concentration) and then diluted 100×with the assay buffer. 2 μL was added to the incubation mixture giving a final concentration of DMSO of less than 0.04% in the final assay mixture. The incubations were carried out at 30° C. for 10 min before the reaction was stopped by addition of the stop solution (5% trichloroacetic acid, 0.1 M potassium phosphate) and loaded onto 0.5 ml Dowex AG 50W-X8 (200-800 mesh, Bio-Rad) columns. After the [^32 P]-inorganic phosphate was eluted from the column, it was mixed with 12 ml of ScintiVerse II (Fisher Scientific) and counted on a Beckman LS1801 Liquid Scintillation Systems. Bovine brain calcineurin and calmodulin were purchased from Sigma Chemical (St. Louis, Mo.). ^32 P-labeled phosphorylated peptide substrate, bovine brain calcineurin, and rabbit anti-calcineurin IgG were generous gifts from Dr. Claude B. Klee (National Cancer Institute, Department of Biochemistry). Goat-anti-rabbit IgG conjugated with alkaline phosphatase and the alkaline phosphatase substrates (BCIP and NBT) were obtained from Pierce (Rockford, ILL.). Glutathione Sepharose 4B was from Pharmacia LKB (Uppsala, Sweden). 506BD was prepared by Thomas J. Wandless and Patricia K. Somers in the Harvard laboratory.

[4] = system: T-cell receptor-mediated signaling pathway; details: cited from earlier work

Row | Molecule | elution of the four target proteins from the immobilized immunophilin-drug matrix [1] | retention/adsorption of the Mr 61,000, 57,000, 17,000 and 15,000 proteins by the affinity matrix [2] | effect on phosphatase activity of calcineurin towards para-nitrophenyl phosphate [3] | effect on phosphatase activity of calcineurin towards the phosphopeptide substrate (calcineurin) | inhibition of TCR-mediated signaling ([4]; previous observations) | concentration needed to interfere with T-cell receptor-mediated signaling, relative to CsA ([4]; lower concentrations than CsA) [fold]
1 | O=C(O)CN(CCOCCOCCN(CC(=O)O)CC(=O)O)CC(=O)O [EGTA] | able to effectively elute; also recorded: capable of eluting | – | – | – | – | –
2 | FKBP12: recombinant human immunophilin binding FK506 and rapamycin | – | do not retain | no effect | no effect | – | –
3 | CO[C@H]1C[C@@H]2CC[C@@H](C)[C@@](O)(O2)C(=O)C(=O)N2CCCC[C@H]2C(=O)O[C@H]([C@H](C)C[C@@H]2CC[C@@H](O)[C@H](OC)C2)CC(=O)[C@H](C)/C=C(\C)[C@@H](O)[C@@H](OC)C(=O)[C@H](C)C[C@H](C)/C=C/C=C/C=C/1C [rapamycin] | – | do not retain | no effect | no effect | inhibits different, calcium-independent signaling pathways | –
4 | cyclophilin A: recombinant human immunophilin which complexes with cyclosporine A | – | – | no effect | no effect | – | –
5 | C=CC[C@@H]1/C=C(\C)C[C@H](C)C[C@H](OC)[C@H]2O[C@@](O)(C(=O)C(=O)N3CCCC[C@H]3C(=O)O[C@H](/C(C)=C/[C@@H]3CC[C@@H](O)[C@H](OC)C3)[C@H](C)[C@@H](O)CC1=O)[C@H](C)C[C@@H]2OC [FK506] | – | do not retain | no effect | no effect | – | 100
